# Measured values: ChEMBL document CHEMBL1146654, “3-(7-Azaindolyl)-4-arylmaleimides as potent, selective inhibitors of glycogen synthase kinase-3” (Bioorg Med Chem Lett, 2004)
# Legend:
# Parameters in all cases: scale not given: the % may be the effect or the level left
# [1] = target: Proto-oncogene tyrosine-protein kinase Src (Homo sapiens) (UniProt P12931); experiment: Inhibition of c-Src tyrosine kinase
# [2] = target: Mitogen-activated protein kinase 11 (Homo sapiens) (UniProt Q15759); experiment: Inhibition of Stress activated protein kinase 2b
# [3] = target: CDK6/cyclin D3 (Homo sapiens) (UniProt P30281+Q00534); experiment: Inhibition of Cyclin-dependent kinase 6-cyclin D3; type: protein-complex assay
# [4] = target: T1, Inhibitor of nuclear factor kappa-B kinase subunit alpha (Homo sapiens) (UniProt O15111); experiment: Inhibition of I kappa-B kinase alpha
# T1 sequence (whole entry): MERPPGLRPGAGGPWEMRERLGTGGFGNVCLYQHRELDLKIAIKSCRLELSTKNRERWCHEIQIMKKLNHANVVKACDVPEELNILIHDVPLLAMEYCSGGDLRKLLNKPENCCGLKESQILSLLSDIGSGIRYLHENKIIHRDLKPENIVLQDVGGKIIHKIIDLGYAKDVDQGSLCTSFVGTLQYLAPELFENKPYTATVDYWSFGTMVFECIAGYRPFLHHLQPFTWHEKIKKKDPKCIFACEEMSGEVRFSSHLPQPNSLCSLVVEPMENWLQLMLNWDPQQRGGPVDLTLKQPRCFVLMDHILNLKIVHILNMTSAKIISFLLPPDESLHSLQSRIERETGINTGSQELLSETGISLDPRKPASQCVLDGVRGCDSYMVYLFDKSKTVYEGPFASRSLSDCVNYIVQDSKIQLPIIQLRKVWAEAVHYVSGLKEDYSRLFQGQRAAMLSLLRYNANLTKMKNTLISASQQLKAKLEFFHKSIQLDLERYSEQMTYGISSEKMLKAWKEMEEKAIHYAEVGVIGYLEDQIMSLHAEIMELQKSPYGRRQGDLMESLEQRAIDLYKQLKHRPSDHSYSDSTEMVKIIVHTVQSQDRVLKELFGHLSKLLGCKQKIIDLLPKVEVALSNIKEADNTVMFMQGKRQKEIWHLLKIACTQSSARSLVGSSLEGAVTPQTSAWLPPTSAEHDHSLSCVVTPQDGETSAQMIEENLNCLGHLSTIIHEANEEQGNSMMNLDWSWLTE
# [5] = target: Cyclin-dependent kinase 2/cyclin E (Homo sapiens) (UniProt P24864+P24941+O96020); experiment: Inhibition of CDK2/cyclin E; type: protein-complex assay
# [6] = target: Tyrosine-protein kinase CSK (Homo sapiens) (UniProt P41240); experiment: Inhibition of Tyrosine-protein kinase CSK
# [7] = target: Protein kinase C beta type (Homo sapiens, UniProt P05771); experiment: Inhibition of PKCbetaII
# [8] = target: T2, Tyrosine-protein kinase ZAP-70 (Homo sapiens) (UniProt P43403); experiment: Inhibition of Zeta-chain (TCR) associated protein kinase 70 kDa (ZAP70)
# T2 sequence (whole entry): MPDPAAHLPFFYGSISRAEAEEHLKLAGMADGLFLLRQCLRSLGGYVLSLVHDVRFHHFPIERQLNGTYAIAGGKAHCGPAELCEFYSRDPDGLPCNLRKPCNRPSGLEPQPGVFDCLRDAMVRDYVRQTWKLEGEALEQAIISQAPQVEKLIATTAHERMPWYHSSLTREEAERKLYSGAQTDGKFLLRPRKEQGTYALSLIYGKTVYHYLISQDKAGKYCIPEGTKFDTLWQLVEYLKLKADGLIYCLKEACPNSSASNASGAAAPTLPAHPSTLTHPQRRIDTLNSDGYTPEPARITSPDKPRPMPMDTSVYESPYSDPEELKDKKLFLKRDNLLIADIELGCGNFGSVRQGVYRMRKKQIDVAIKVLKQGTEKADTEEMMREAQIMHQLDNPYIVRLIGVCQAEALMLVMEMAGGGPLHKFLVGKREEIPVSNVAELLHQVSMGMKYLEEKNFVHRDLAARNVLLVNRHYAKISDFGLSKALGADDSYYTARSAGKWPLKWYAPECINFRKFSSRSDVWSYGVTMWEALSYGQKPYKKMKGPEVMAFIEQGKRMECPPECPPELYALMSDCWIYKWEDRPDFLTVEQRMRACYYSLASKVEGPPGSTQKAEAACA
# [9] = target: T3, Serine/threonine-protein kinase Chk1 (Homo sapiens) (UniProt O14757); experiment: Inhibition of Serine/threonine-protein kinase Chk1
# T3 sequence (whole entry): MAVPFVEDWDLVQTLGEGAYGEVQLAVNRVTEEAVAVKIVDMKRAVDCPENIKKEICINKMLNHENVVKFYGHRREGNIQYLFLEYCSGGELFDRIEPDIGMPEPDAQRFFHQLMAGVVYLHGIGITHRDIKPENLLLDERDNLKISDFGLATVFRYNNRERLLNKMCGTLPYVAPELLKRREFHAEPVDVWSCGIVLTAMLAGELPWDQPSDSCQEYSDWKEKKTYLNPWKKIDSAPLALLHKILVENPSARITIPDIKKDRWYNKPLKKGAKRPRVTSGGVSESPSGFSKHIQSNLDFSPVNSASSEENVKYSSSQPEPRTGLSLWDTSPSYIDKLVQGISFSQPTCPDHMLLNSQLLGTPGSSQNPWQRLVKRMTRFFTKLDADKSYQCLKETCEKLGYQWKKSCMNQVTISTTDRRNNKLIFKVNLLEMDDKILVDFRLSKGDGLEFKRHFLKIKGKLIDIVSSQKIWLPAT
# [10] = target: Tyrosine-protein kinase Lyn (Mus musculus) (UniProt P25911); experiment: Inhibition of Protein tyrosine kinase Lyn
# [11] = target: Tyrosine-protein kinase Fes/Fps (Homo sapiens) (UniProt P07332); experiment: Inhibition of Fes kinase
# [12] = target: Mitogen-activated protein kinase 14 (Homo sapiens) (UniProt Q16539); experiment: Inhibition of Stress activated protein kinase 2a
# [13] = target: Cyclin-dependent kinase 1/cyclin B (Homo sapiens) (UniProt P06493+P14635+Q8WWL7+O95067); experiment: Inhibition of cyclin-dependent kinase 1-cyclin B; type: protein-complex assay
# [14] = target: T4, Serine/threonine-protein kinase Sgk1 (Homo sapiens) (UniProt O00141); experiment: Inhibition of Serum/glucocorticoid regulated kinase
# T4 sequence (whole entry): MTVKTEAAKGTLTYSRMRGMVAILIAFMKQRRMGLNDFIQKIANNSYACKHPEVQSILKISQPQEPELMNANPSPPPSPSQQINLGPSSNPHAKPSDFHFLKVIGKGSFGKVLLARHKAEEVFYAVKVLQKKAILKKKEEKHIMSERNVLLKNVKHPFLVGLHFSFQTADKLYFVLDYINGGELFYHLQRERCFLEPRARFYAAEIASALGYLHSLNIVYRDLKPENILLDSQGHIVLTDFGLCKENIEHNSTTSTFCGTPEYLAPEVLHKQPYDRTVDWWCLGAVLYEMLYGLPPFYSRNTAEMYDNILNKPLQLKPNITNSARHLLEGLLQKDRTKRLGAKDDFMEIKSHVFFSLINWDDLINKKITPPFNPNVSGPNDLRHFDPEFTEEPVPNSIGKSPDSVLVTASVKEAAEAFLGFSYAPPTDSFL
# Chain of Mitogen-activated protein kinase 11 (Homo sapiens) (Q15759 whole entry): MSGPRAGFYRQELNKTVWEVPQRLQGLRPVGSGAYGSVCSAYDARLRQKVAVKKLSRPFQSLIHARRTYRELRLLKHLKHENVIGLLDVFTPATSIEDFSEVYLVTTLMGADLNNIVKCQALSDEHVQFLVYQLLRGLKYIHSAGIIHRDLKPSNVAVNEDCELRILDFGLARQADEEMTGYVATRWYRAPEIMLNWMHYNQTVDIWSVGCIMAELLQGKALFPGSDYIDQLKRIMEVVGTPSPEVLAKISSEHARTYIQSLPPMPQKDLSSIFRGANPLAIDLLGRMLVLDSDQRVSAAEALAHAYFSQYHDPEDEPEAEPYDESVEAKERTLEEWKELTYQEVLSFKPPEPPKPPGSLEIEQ
# Chain of Tyrosine-protein kinase Fes/Fps (Homo sapiens) (P07332 whole entry): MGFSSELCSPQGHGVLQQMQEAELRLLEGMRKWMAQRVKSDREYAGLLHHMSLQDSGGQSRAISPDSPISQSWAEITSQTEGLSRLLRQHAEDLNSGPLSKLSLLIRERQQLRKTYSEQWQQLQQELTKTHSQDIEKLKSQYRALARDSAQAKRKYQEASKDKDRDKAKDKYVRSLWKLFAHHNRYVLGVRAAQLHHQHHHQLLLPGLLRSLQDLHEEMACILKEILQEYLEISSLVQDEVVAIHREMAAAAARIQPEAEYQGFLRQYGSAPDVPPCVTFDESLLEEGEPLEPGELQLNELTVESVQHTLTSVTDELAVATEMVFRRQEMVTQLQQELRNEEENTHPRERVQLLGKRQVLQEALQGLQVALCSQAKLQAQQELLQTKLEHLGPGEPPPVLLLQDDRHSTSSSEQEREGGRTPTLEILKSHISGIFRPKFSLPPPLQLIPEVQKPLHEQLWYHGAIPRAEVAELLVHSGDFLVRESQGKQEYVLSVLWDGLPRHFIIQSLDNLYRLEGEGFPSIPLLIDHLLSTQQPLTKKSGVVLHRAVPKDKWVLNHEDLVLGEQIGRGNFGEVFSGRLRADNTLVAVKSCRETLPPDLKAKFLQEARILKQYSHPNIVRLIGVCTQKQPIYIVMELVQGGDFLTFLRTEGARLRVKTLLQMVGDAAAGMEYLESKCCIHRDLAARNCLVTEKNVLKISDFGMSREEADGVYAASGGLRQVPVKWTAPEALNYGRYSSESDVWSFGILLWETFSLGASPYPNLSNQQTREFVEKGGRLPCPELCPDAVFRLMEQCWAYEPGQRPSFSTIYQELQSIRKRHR
# Chain of Protein kinase C beta type (P05771 2-671 limits assumed): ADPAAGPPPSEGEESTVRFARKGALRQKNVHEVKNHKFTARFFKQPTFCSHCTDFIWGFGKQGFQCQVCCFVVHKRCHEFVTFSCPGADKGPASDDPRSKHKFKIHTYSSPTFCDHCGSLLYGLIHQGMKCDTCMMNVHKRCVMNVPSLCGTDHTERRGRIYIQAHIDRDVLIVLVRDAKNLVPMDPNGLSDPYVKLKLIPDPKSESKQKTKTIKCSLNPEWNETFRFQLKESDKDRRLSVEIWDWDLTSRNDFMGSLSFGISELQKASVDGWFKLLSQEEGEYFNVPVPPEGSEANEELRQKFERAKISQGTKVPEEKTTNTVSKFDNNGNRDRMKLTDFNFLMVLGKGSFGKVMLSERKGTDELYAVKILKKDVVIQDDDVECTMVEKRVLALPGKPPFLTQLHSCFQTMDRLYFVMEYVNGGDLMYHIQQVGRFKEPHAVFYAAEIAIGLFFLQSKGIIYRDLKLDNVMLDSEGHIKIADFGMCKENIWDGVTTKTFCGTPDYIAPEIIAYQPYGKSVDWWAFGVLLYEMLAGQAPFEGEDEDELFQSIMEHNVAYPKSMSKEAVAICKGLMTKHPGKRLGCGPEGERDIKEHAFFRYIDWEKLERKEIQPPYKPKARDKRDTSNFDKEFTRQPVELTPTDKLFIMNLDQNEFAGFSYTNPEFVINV
# Chain of Mitogen-activated protein kinase 14 (Homo sapiens) (Q16539 whole entry): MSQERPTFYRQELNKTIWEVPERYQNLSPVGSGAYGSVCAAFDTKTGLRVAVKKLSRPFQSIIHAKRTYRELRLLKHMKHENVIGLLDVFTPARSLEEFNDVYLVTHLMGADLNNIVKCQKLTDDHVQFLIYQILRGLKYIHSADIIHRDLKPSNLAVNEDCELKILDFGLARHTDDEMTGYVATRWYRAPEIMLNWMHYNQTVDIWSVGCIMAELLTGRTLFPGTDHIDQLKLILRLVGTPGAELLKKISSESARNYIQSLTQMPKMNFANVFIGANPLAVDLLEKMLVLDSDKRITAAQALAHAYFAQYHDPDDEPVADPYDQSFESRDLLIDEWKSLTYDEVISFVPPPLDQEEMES
# Chain of Tyrosine-protein kinase CSK (Homo sapiens) (P41240 2-450 limits assumed): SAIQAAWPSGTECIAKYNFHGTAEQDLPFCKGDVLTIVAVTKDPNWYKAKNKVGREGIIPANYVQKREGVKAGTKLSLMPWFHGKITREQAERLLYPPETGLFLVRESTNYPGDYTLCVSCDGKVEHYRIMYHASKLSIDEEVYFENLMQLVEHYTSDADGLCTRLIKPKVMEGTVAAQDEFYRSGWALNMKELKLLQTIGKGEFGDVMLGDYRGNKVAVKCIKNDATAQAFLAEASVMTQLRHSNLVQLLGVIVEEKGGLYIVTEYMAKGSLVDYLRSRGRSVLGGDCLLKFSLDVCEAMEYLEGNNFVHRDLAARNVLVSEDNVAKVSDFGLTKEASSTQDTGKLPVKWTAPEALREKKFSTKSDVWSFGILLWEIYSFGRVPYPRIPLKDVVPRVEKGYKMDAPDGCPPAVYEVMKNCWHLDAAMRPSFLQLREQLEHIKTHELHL
# Chain of Tyrosine-protein kinase Lyn (Mus musculus) (P25911 whole entry): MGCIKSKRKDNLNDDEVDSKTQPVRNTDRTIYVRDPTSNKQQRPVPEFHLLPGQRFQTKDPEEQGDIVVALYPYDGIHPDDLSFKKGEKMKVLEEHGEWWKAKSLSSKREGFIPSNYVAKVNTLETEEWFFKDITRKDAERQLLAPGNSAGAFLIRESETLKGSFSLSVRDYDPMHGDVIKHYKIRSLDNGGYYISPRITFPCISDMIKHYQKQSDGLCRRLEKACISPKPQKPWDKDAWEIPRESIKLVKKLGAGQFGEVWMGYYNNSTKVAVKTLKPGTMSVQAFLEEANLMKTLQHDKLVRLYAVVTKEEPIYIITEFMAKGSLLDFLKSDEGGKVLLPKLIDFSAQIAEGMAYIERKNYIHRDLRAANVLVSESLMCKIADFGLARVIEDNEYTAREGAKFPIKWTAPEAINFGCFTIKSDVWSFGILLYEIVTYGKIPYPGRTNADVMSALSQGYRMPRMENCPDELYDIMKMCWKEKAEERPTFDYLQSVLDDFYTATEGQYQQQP
# Chain of Proto-oncogene tyrosine-protein kinase Src (Homo sapiens) (P12931 2-536 limits assumed): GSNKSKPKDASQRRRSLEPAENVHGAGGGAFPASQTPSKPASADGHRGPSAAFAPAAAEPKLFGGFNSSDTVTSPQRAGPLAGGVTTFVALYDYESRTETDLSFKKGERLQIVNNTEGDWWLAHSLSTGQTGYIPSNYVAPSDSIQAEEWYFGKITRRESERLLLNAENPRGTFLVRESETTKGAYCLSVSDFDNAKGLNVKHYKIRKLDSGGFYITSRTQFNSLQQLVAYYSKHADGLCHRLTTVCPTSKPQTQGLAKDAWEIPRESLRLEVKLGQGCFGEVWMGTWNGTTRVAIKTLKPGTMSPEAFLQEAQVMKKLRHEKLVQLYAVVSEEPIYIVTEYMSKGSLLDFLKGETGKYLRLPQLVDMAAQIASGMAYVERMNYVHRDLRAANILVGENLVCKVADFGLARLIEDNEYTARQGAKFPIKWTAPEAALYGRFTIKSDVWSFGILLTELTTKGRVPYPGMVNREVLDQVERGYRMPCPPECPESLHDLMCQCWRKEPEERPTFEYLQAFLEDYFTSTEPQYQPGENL
Activity [1] [%],Activity [2] [%],Activity [3] [%],Activity [4] [%],Activity [5] [%],Activity [6] [%],Activity [7] [%],Activity [8] [%],Activity [9] [%],Activity [10] [%],Activity [11] [%],Activity [12] [%],Activity [13] [%],Activity [14] [%],SMILES
99,102,50,83,11,89,32,100,78,81,79,84,9,98,COCCCn1cc(C2=C(c3ccccc3O)C(=O)NC2=O)c2cccnc21
93,94,59,76,30,74,70,91,73,85,81,81,34,87,O=C1NC(=O)C(c2cn(CCCO)c3ncccc23)=C1c1ncc(C(F)(F)F)cc1Cl
74,106,24,89,3,95,15,112,95,20,87,109,3,105,COc1ccccc1C1=C(c2cn(CCCNC(=O)OC(C)(C)C)c3ncccc23)C(=O)NC1=O
